Results on five molecules are retold here after publication PMC7349657, “Efficient Targeted Degradation via Reversible and Irreversible Covalent PROTACs” (Journal of the American Chemical Society, 2020).

For assay [1], the target named is T1, BTK (Homo sapiens, UniProt Q06187). Description: BTK degradation in Mino cells, dose-response Western blot. The class given is cell-based. Set-up: endogenous in cells; host or cells: Mino (ATCC CRL-3000), Ramos (ATCC CRL-1596), K562 (NCI-60). The settings on record: 24 h; for DC50: second-order polynomial fit; for Dmax: MINO, read-out: Dmax (maximal degradation). The method, then:
We evaluated the ability of the compounds to induce degradation of BTK in human cell lines. We incubated Mino cells with the compounds and followed BTK levels after 24 h by Western blot (Figure 2, Supporting Figure 2). […] The irreversible acrylamides IR-1 and IR-2 and the cyanoacrylamide RC-3 followed closely with DC50’s under 10 nM and Dmax near 90%. […] We conducted metabolomics studies to estimate if cellular penetration and stability may contribute to the relative potencies (Supporting Table 2). NC-1 and RC-3 reached an effective concentration that was ∼2 times higher than IR-2 and ∼10 times higher than RC-2. Therefore, the lower potency of RC-2 can at least in part be explained by lower permeability or stability.
Figure 2 Efficient BTK degradation in cells. (A) Western blot evaluation of BTK levels in Mino cells in response to various concentrations of RC-2, IR-2, NC-1, and RC-3, after 24 h of incubation. (B) Quantification of BTK levels in (A) by normalization to the β-actin house-keeping gene in Mino cells. DC50 and Dmax were calculated by fitting the data to a second-order polynomial using Prism software. (C) Summary of the DC50 and Dmax values for the PROTACs in Mino cells described in (A) and Supporting Figure 2. TEXT PRINTED IN THE PICTURE: (C) NC-1: DC50 (nM): 2.2; Dmax (%): 97 | (C) IR-1: DC50 (nM): 8.6; Dmax (%): 91 | (C) IR-2: DC50 (nM): 1.9; Dmax (%): 88 | (C) RC-1: DC50 (nM): 10; Dmax (%): 68 | (C) RC-2: DC50 (nM): 35; Dmax (%): 66 | (C) RC-3: DC50 (nM): 6; Dmax (%): 85
Ramos (ATCC, CRL-1596), Mino (ATCC, CRL-3000), or K562 (NCI-60) cell lines were counted and diluted to 10^6 cell/mL, using 1 mL per well in a 24-well plate, and U2OS (ATCC HTB-96) cells overexpressing human BTK WT or C481S mutant were grown using 2 mL in a six-well plate (see Supporting Information). Cells were incubated with 1% DMSO or compound in indicated concentrations for 24 h unless indicated differently, or cells were left untreated. Lysates were prepared as previously described,[29] and samples were measured for total protein quantification by bicinchoninic acid (BCA) assay (#23225 ThermoFisher Scientific) supplemented with 4× loading buffer including 20 mM DTT, heated to 70 °C for 10 min, loaded into 4% SDS-PAGE gel, run for 45 min at 140 mV, then transferred into a nitrocellulose membrane (Biorad) using a Trans-Blot Turbo transfer system (Biorad). The membrane was stained with Ponceau (Sigma) to validate transfer for 10 min in gentle agitation then destained for 1 h with MQ water. The membrane was blocked with Licor blocking buffer (LIC927-70001) for 1 h, washed three times for 5 min with TBS-T, incubated with primary antibody BTK (D3H5) rabbit mAb (CST; 8547 S) overnight (16 h) at 4 °C, washed three times for 5 min with TBS-T, and incubated with primary antibody against β-actin (CST; 3700) for 1 h at 25 °C. Membrane was washed three times for 5 min with TBS-T, incubated with fluorescent secondary antibodies anti-mouse IgG Alexa Fluor 647 (CST: 4410S) and anti-rabbit-IgG IRDye 800(LICOR: 926-32211) for 1 h, then washed three times for 5 min with TBS-T, dried, and immediately imaged and analyzed using Licor Odyssey CLx. Prism (GraphPad) software was used to calculate degradation levels. We used second-order polynomial fits to estimate DC50 and Dmax values.
On the technique in general: A western blot detects proteins with antibodies after separation by electrophoresis.

The target of assay [2] is T1, BTK. Nature of the assay: BTK degradation in patient-derived primary CLL cells (Western blot). The settings on record: 18 h. The class given is cell-based. Details: endogenous in cells. The method, then: To assess the PROTACs’ efficiency in a clinically relevant model, we tested their ability to induce BTK degradation in primary cells from chronic lymphocytic leukemia (CLL) patients.
Figure 4 Degradation of BTK in patient-derived CLL cells. Patient-derived primary CLL cells were treated with BTK PROTACs for 18 h, followed by measuring BTK levels via Western blot. M-IGHV/UM-IGHV: mutated/unmutated immunoglobulin heavy chain variable region (IGHV) gene.
The LC–MS/MS instrument consi sted of an Acquit y I-class UPLC system (Waters) and Xevo TQ-XS triple quadrupole mass spectrometer (Waters) equipped with an electrospray ion source. Chromatographic separation was done on UPLC BEH C18 column (50mm × 2.1mm, 1.7-µm, Waters) using 50-100% gradient of 95%-aqueous acetonitrile with 0.1% formic acid in aqueous 0.1% formic acid during 2.5 minut e s, with a flow rate of 0. 3 mL min−1 and column temperature 30°C. Samples kept at 10°C were automatically injected in a volume of 3µl.
MS parameters (positive ion mode): capillary voltage - 2. 0kV, source temperature - […]
Targeting BTK in CLL cells […]
Following incubation with PROTACs as detailed, cells were collected and lysed in cell lysis buffer (Cell Signaling Technology, Beverly, MA) containing Phosphatase Inhibitor Cocktail 2 and protease inhibitor Cocktail (Sigma-Aldrich, St. Louis, MO). […] Bands were detected using MyECL Imager (Thermo Scientific, […]

By DC50 is commonly meant the concentration giving 50% degradation. The low end stands for a more potent degrader, the high end for a less potent degrader. The Dmax is the largest share of the target that was removed.

Structures are written as SMILES. Values joined by “and” are separate entries in the source; they are usually repeats but may differ in a detail not shown here. Equal values may be shown once. Where only a bound is given, the exact number is not on record here.

T1 sequence (Q06187 whole entry): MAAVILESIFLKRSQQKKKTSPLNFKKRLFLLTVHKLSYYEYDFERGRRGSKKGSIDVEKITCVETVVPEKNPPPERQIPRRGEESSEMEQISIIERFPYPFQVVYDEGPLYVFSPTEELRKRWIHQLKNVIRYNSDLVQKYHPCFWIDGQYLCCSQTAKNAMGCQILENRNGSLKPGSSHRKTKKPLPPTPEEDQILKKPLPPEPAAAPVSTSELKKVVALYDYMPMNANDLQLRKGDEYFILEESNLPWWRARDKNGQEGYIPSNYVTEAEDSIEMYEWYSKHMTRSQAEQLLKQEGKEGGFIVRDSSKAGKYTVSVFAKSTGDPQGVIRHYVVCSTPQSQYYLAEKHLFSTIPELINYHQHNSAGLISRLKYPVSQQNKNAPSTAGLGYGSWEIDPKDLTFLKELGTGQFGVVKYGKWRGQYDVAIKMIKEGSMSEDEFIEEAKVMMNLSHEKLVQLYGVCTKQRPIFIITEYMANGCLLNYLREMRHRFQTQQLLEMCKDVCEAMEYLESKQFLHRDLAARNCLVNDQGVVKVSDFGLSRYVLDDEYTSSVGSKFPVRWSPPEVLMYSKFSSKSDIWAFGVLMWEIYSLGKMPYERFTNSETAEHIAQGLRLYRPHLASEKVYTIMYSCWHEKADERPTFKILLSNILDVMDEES

`Nc1ncnc2c1c(-c1ccc(Oc3ccccc3)cc1)nn2C1CCCN(C(=O)C=CCOCCOCCOCCOCCOCCOc2cccc3c2C(=O)N(C2CCC(=O)NC2=O)C3=O)C1` (stereo not shown) [IR-1]: at BTK [1], the “Dmax (maximal degradation)” value is reported as 91%; the DC50 is < 10 nM and 8.6 nM; the Dmax was roughly 90%.
On to `CC(C)(C=C(C#N)C(=O)N1CCCC(n2nc(-c3ccc(Oc4ccccc4)cc3)c3c(N)ncnc32)C1)CCCOCCOCCOCCOCCOc1cccc2c1C(=O)N(C1CCC(=O)NC1=O)C2=O` (stereo not shown) [RC-3], for which, at BTK [1], the “Dmax (maximal degradation)” value was determined as 85%; the DC50 was < 10 nM and 6 nM; the Dmax is roughly 90%.
Consider `N#CC(=CCCCCOCCOCCOCCOCCOc1cccc2c1C(=O)N(C1CCC(=O)NC1=O)C2=O)C(=O)N1CCCC(n2nc(-c3ccc(Oc4ccccc4)cc3)c3c(N)ncnc32)C1` (stereo not shown) [RC-2], for which the Dmax at BTK [1] turned out to be 66%.
As for `Nc1ncnc2c1c(-c1ccc(Oc3ccccc3)cc1)nn2C1CCCN(C(=O)CCCCCCOCCOCCOCCOCCOc2cccc3c2C(=O)N(C2CCC(=O)NC2=O)C3=O)C1` (stereo not shown) [NC-1], the BTK degradation level result at BTK [2] is “higher degradation levels than RC-2 and RC-3”. Also, on BTK [1], it took 2.2 nM to reach half-maximal degradation (DC50) and the Dmax was 97%.
As to `Nc1ncnc2c1c(-c1ccc(Oc3ccccc3)cc1)nn2C1CCCN(C(=O)C=CCCCCOCCOCCOCCOCCOc2cccc3c2C(=O)N(C2CCC(=O)NC2=O)C3=O)C1` (stereo not shown) [IR-2], on BTK [2], the BTK degradation level result is “higher degradation levels than RC-2 and RC-3”. On BTK [1], the “Dmax (maximal degradation)” value came to 88% and the Dmax is roughly 90%.
